Patent US6727285B1, “Use of D-arginine and/or L-arginine to protect the amino groups of biological substances from damage, inactivation, or modification by toxic carbonyls and/or dicarbonyls” (priority 1995, dated 2004)
Read-outs that look alike come from different tables or passages of the source.

Experiments:
bovine serum albumin [1] = assay: Protectant pretreatment against methylglyoxal gel formation of bovine serum albumin, pH adjusted by titration NaOH/HCL (Example 3, Table 6); format: biochemical
Procedure: As described in TABLE #6,2 ml. bovine serum albumin 30% solution was added to each of eight 7 ml. glass test tubes. One millimole of guanidine was added to tube #1; no protectant was added to tubes #2, #3, and #4. […] Into test tube #6 was added 1 millimole of L-arginine hydrochloride, the pH was adjusted to 7.40 by micro-drop titration. Into test tube #7 was added 1 millimole of L-arginine hydrochloride, not pH adjusted. Into test tube #8 was added 1 millimole of D-arginine hydrochloride, not pH adjusted. […] After 3 hours the heating unit was turned off reducing the temperature to room temperature, 75 degrees Fahrenheit, to prevent the drying out of the sample and the reaction was allowed to proceed overnight.

bovine serum albumin [2] = assay: Blocking of methylglyoxal or glyoxal cross-linking (gel formation) of albumin, inventor's tests; format: biochemical; details: for blocking of the cross-linking of albumin by methylglyoxal or glyoxal: arginines: hydrochloride salts and free base forms; for gelatin formation of bovine serum albumin when methylglyoxal is added: acidic solution, room temperature, 2 cc BSA pretreated with one millimole; for gelatin formation of bovine serum albumin when methylglyoxal is added / conversion of bovine serum albumin from liquid to gelatin by methylglyoxal: one millimole methylglyoxal; for conversion of bovine serum albumin from liquid to gelatin by methylglyoxal: pH 6.4 to 7.4, room temperature, 75, 80, 83, 90 and 98.6 degrees Fahrenheit, 2 cc 30% BSA pretreated with one millimole; for methylglyoxal-induced gel formation of liquid bovine serum albumin: pretreatment, free base or hydrochloride form
bovine serum albumin [3] = assay: Protectant pretreatment against methylglyoxal cross-linking of HEPES-buffered bovine serum albumin (Example 2, Table 5); format: biochemical; details: 2 ml 30% BSA, 1 millimole protectant, 1 millimole methylglyoxal
Procedure: As described in TABLE #5, 2 cc of 30% bovine serum albumin was added by glass pipette to each of 6 glass 7 ml. test tubes numbered 1 through 6. 1 millimole of L-arginine hydrochloride in 0.5 ml. of 6 molar HEPES buffer was added to tube #1. 1 millimole of L-arginine hydrochloride in 0.4 ml. of 6 molar HEPES buffer was added to tube #2. 1 millimole D-arginine hydrochloride in 0.5 ml. of 6 molar HEPES buffer was added to tube #3. 1 millimole D-arginine hydrochloride in 0.4 ml. of 6 molar HEPES buffer was added to tube #4. 0.5 ml. of 6 molar HEPES buffer was added to tube #5. 1 millimole of glycocyamine in 0.5 ml. of 6 molar HEPES buffer was added to tube #6.
The pH was measured periodically and observations were made and recorded. At three hours the heating unit was reduced to room temperature, 75 degrees Fahrenheit, to prevent drying and the reaction allowed to proceed.

bovine serum albumin [4] = molecular target: T1, bovine serum albumin (Bos taurus, UniProt P02769); format: biochemical; details: for gel formation of albumin samples: pretreated with 1 millimole, 2 ml 30% BSA, 1 millimole methylglyoxal, HEPES buffered, 98.6 F., 217 rpm
T1 construct: HEPES salt, HEPES acid, and bovine serum albumin was obtained from Sigma; purchased Sigma
T1 sequence (P02769 25-607): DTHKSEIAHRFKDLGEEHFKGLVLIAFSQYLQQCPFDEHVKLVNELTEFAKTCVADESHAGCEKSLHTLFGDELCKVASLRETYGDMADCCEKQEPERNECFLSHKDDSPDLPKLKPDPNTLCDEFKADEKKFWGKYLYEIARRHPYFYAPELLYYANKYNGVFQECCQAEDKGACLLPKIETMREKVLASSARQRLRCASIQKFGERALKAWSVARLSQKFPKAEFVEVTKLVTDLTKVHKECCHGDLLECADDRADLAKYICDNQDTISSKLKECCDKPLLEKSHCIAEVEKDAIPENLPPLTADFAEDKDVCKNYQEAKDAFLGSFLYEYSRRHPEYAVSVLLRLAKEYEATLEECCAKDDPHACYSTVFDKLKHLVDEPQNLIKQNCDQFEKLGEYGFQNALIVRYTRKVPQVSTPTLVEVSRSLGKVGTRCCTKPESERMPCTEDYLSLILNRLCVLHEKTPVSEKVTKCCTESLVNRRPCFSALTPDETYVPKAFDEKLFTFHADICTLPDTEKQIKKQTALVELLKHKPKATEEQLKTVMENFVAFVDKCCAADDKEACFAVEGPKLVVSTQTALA
Procedure: The magnetic stirrer was set to 217 rpm. The pH was checked at five minutes.
The pH was constantly monitored as were the color and fluid characteristics of the mixture. […] The end-point was recorded when a visible non-flowing gel formed in the tube and could not be caused to flow when the tube was inverted at 40 degrees below the horizontal for two minutes.

[5] = system: New Zealand White rabbits; details: arginine HCL oral 30 mg/kg/day or i.v. 10 mg/kg/day, methylglyoxal i.v. daily
Procedure: (§1) Group 2: The rabbits of group 2 are fed a diet supplemented with oral D-arginine HCL 30 mg/kg/day (or an appropriate dose which can range from, for example, but not limited to, 1 mg/kg/day to 100 mg/kg/day).
(§2) Group 3: The rabbits of group 3 are fed a diet supplemented with oral L-arginine HCL 30 mg/kg/day (or an appropriate dose which can range from, for example, but not limited to, 1 mg/kg/day to 100 mg/kg/day).
(§3) Group 4: The rabbits of group 4 receive L-arginine HCL by ear vein in 10 cc normal saline at a dose of 10 mg/kg/day (or an appropriate dose which can range from, for example, but not limited to, 1 mg/kg/day to 100 mg/kg/day) for the duration of the experiment.
(§4) Group 5: The rabbits of group 5 receive D-arginine HCL by ear vein in 10 cc normal saline at a dose of 10 mg/kg/day (or an appropriate dose which can range from, for example, but not limited to, 1 mg/kg/day to 100 mg/kg/day) for the duration of the experiment.

[6] = system: non-diabetic animal model; assay: Non-diabetic rabbits challenged with radiolabeled methylglyoxal (Example 7); details: otherwise identical to Example 5
[7] = system: insulin dependent diabetic; assay: L-arginine hydrochloride in a diabetic patient with painful feet (Example 9); format: in vivo, human; details: 700 mg twice a day (1,400 mg per day), 120kg, painful feet secondary to vasculopathy and/or neuropathy, within 6 weeks
ovalbumin = molecular target: T2, ovalbumin (Gallus gallus, UniProt P01012); assay: Reaction of methylglyoxal with ovalbumin (egg albumin); format: biochemical
T2 sequence (P01012 1-386): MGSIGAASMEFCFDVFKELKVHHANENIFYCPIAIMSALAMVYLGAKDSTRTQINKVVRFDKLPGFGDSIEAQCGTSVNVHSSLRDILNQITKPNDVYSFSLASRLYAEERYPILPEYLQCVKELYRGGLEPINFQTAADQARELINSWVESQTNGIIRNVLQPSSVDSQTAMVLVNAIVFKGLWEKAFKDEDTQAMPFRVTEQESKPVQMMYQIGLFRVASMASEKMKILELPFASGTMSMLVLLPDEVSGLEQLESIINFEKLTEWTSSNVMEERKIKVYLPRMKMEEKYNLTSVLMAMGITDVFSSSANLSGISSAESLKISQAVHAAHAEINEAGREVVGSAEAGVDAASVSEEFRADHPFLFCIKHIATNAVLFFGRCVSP

[8] = system: New Zealand White rabbits made diabetic by streptozotocin; details: arginine HCL oral 30 mg/kg/day or i.v. 10 mg/kg/day, radiolabeled methylglyoxal i.v. daily
Procedure: as §1, §2, §3, §4
(§5) At the end of the experiment, all animals are sacrificed and their kidneys removed, sectioned and examined for gross and microscopic changes, as well as for accumulation of the radiolabel, with special attention to the glomerular basement membrane.

[9] = system: New Zealand White rabbits made diabetic by streptozotocin; assay: Streptozotocin-diabetic rabbits given i.v. radiolabeled glucose, kidney examination (Example 6); details: arginine HCL oral 30 mg/kg/day or i.v. 10 mg/kg/day, radiolabeled glucose i.v. daily
Procedure: as §1, §2, §3, §4, §5

bovine serum albumin [10] = molecular target: T1, bovine serum albumin; format: biochemical
Procedure: As described in TABLE #4, 2 cc of 30% bovine serum albumin (BSA) was added by glass pipette (Kimax 1/100) to each of three glass 7 ml. test tubes numbered 1, 2, and 3. 0.4 ml. of 6 molar HEPES buffer was added to tube #1 by glass pipette. 0.5 ml. of 6 molar HEPES buffer was added to test tube #2. 0.3 ml. of 6 molar HEPES buffer was added to tube #3.

[11] = 2 ml BSA + 1 millimole protectant not pH adjusted, 0.18 ml of 40% pH-adjusted methylglyoxal
[12] = 2 ml BSA + 1 millimole protectant, pH adjusted to 7.40-7.46 with NaOH/HCL, 0.18 ml of 40% pH-adjusted methylglyoxal

SMILES: N=C(N)N [guanidine, reference compound]
- FINAL FORM (bovine serum albumin [1]; 2 ml BSA, 1 millimole protectant added to BSA, 1 millimole (0.18 ml of 40%) methylglyoxal pH adjusted to 7.40): GEL
- blocking of the cross-linking of albumin by methylglyoxal or glyoxal (bovine serum albumin [2]): do not block

SMILES: Cl.N=C(N)NCCC[C@@H](N)C(=O)O [D-arginine Hydrochloride, D-arginine hydrochloride]
- FINAL FORM (bovine serum albumin [3]; 6 m HEPES 0.4 ml): LIQUID
- FINAL FORM (bovine serum albumin [3]; 6 m HEPES 0.5 cc/ml): LIQUID
- FINAL FORM (bovine serum albumin [1]; [11]): LIQUID
- Observation overnight (bovine serum albumin [1]; [11]): later; remained liquid overnight;
- FINAL FORM (bovine serum albumin [1]; [12]): LIQUID
- Observation at 1 hr. 5 min. (bovine serum albumin [1]; [12]): brownish, yellow liquid,
- Observation overnight (bovine serum albumin [1]; [12]): Remained liquid
- gel formation of albumin samples (bovine serum albumin [4]): did not gel at any time and remained liquid

SMILES: NCCS [cystieamine, reference compound]
- blocking of the cross-linking of albumin by methylglyoxal or glyoxal (bovine serum albumin [2]): do not block

SMILES: N=C(N)NCCC[C@H](N)C(=O)O [arginine, 2-amino-5-guanidovaleric acid]
- level of methylglyoxal in the blood [5]: reduces
- changes caused by methylglyoxal [6]: blocks

SMILES: N=C(N)NN [aminoguanidine, reference compound]
- blocking of the cross-linking of albumin by methylglyoxal or glyoxal (bovine serum albumin [2]): do not block

SMILES: Cl.N=C(N)NCCC[C@H](N)C(=O)O [L-arginine Hydrochloride, L-arginine hydrochloride]
- FINAL FORM (bovine serum albumin [3]; 6 m HEPES 0.4 ml): LIQUID
- FINAL FORM (bovine serum albumin [3]; 6 m HEPES 0.5 cc/ml): LIQUID
- Observation overnight (bovine serum albumin [1]; [11]): became viscous overnight;
- FINAL FORM (bovine serum albumin [1]; [12]): LIQUID
- Observation overnight (bovine serum albumin [1]; [12]): later; remained liquid overnight;
- gel formation of albumin samples (bovine serum albumin [4]): did not gel at any time and remained liquid
- pain in both the feet and hands [7]: marked reduction in pain

SMILES: N=C(N)NCCC[C@@H](N)C(=O)O [D-arginine]
- binding of methylglyoxal to bovine serum albumin (bovine serum albumin [2]): capable of blocking the binding
- gelatin formation of bovine serum albumin when methylglyoxal is added (bovine serum albumin [2]): prevent gelatin formation
- blocking of the cross-linking of albumin by methylglyoxal or glyoxal (bovine serum albumin [2]): worked consistently
- conversion of bovine serum albumin from liquid to gelatin by methylglyoxal (bovine serum albumin [2]): the albumin remains liquid
- methylglyoxal-induced gel formation of liquid bovine serum albumin (bovine serum albumin [2]): block methylglyoxal-induced gel formation
- binding of methylglyoxal to egg albumin (ovalbumin): capable of blocking the binding
- accumulation of radiolabeled methylglyoxal in the kidneys compared with the control [8]: reduced or absent
- gross and microscopic changes in the kidney compared to the control [8]: reduced or absent
- accumulation of radiolabeled glucose metabolites in the kidneys compared with the control [9]: reduced or absent
- gross and microscopic changes in the kidney compared to the control [9]: reduced or absent

SMILES: N/N=C(\N)NN [diaminoguanidine, reference compound]
- blocking of the cross-linking of albumin by methylglyoxal or glyoxal (bovine serum albumin [2]): do not block

SMILES: NC(=O)NCCC[C@H](N)C(=O)O [citrulline, reference compound]
- blocking of the cross-linking of albumin by methylglyoxal or glyoxal (bovine serum albumin [2]): do not block

SMILES: N[C@@H](CSSC[C@H](N)C(=O)O)C(=O)O [cystine, reference compound]
- blocking of the cross-linking of albumin by methylglyoxal or glyoxal (bovine serum albumin [2]): do not block

SMILES: N=C(N)NCCC[C@H](N)C(=O)O [L-arginine]
- binding of methylglyoxal to bovine serum albumin (bovine serum albumin [2]): capable of blocking the binding
- gelatin formation of bovine serum albumin when methylglyoxal is added (bovine serum albumin [2]): prevent gelatin formation
- blocking of the cross-linking of albumin by methylglyoxal or glyoxal (bovine serum albumin [2]): worked consistently
- conversion of bovine serum albumin from liquid to gelatin by methylglyoxal (bovine serum albumin [2]): the albumin remains liquid
- methylglyoxal-induced gel formation of liquid bovine serum albumin (bovine serum albumin [2]): block methylglyoxal-induced gel formation
- binding of methylglyoxal to egg albumin (ovalbumin): capable of blocking the binding
- accumulation of radiolabeled methylglyoxal in the kidneys compared with the control [8]: reduced or absent
- gross and microscopic changes in the kidney compared to the control [8]: reduced or absent
- accumulation of radiolabeled glucose metabolites in the kidneys compared with the control [9]: reduced or absent
- gross and microscopic changes in the kidney compared to the control [9]: reduced or absent

SMILES: CC(=O)C=O [methylglyoxal]
- FINAL FORM (bovine serum albumin [10]; pH 7.35): GEL
- time after mixing until firm yellow gelatin formed (bovine serum albumin [10]; sample 1: 2 ml 30% BSA + 0.4 cc 6 m HEPES (pH 7.40), 1 millimole methylglyoxal (0.18 ml of 40%, pH not adjusted), no protectant, 98.6° F.): <5 minutes after mixing
- time until sudden gelatin formation (bovine serum albumin [10]; sample 3: 2 ml 30% BSA + 0.3 cc 6 m HEPES (pH 7.35), 0.20 ml of 40% methylglyoxal buffered to 7.36, counted from the 5-minute pH reading ('33 minutes later')): pH 7.07 at 5 minutes; 33
- product formed with bovine serum albumin (bovine serum albumin [4]; pH 6.4 to 7.4, buffered and unbuffered systems): solid gelatin
- conversion of liquid ovalbumin (ovalbumin; 0.2 cc of 40% methylglyoxal, two cc of liquid ovalbumin, within a matter of hours, 1976 unpublished works): from liquid to solid gelatin

SMILES: N=C(N)NCC(=O)O [glycocyamine, reference compound]
- blocking of the cross-linking of albumin by methylglyoxal or glyoxal (bovine serum albumin [2]): do not block

SMILES: NC(N)=O [urea, reference compound]
- blocking of the cross-linking of albumin by methylglyoxal or glyoxal (bovine serum albumin [2]): do not block
